Test results reported in patent US20050043304A1, “Novel amine derivative having human beta-tryptase inhibitory activity and drugs containing the same” (priority 2001, published 2005).
Read-outs that look alike come from different tables or passages of the source.

Tests used:
β-tryptase = target: T1, β-tryptase (Homo sapiens, UniProt Q15661); assay: β-Tryptase Inhibition Test; type: biochemical
T1 construct: purchased Promega Corporation
Method: Sixty μL of a tris-hydrochloric acid buffer (pH 7.5, containing 200 ng/mL of heparin) was added to 20 μL of β-tryptase (manufactured by Promega Corporation) adjusted to 100 ng/mL with the same buffer. Then, 1 μL of a dimethyl sulfoxide (hereinafter, abbreviated to DMSO) solution as a test compound adjusted to a concentration 100 times as high as the final concentration was added to the mixture. After that, 20 μL of a 0.5 mM synthetic substrate Boc-Phe-Ser-Arg-MCA (manufactured by Peptide Institute, Inc) was added to the mixture, and the whole was reacted at 25° C. for 1 hour, followed by the addition of 100 μL of 20% acetic acid for stopping the reaction. Measured was fluorescence of free MCA generated by laser light with an excitation wavelength of 355 nm (fluorescent wavelength=460 nm, hereinafter abbreviated to F 460 nm).
Δ fluorescence count value (a fluorescence count value after an enzyme reaction—a fluorescence count value before the enzyme reaction) was used for a measure of an enzyme inhibition reaction of a drug, and the enzyme inhibition reaction was evaluated in terms of a suppression rate calculated by the following equation.
A=Δ F 460 nm of a mixture (control) of a substrate containing 1% DMSO and an enzyme
B=Δ F 460 nm of a mixture of a substrate containing a drug dissolved in DMSO and an enzyme
C=Δ F 460 nm of a mixture (blank) containing 1% DMSO and a substrate
Suppression rate (%)=(A−B)×100/(A−C)
The β-tryptase inhibitory activity was measured by the method described above.

trypsin = assay: Trypsin Inhibition Test; type: biochemical; conditions: substrate S-2222, 37° C., 20 minutes; read-out: Enzyme Inhibition IC50 Trypsin
Method: Added to 158 μL of a 20 mM tris-hydrochloric acid buffer (pH 7.5, containing 130 mM NaCl, 3.75 mM CaCl2, and 0.1% BSA) was 20 μL of a trypsin solution (manufactured by Sigma, a stock solution of […] was adjusted to 100 ng/mL with 0.001 N HCl containing 0.1% BSA). After that, 2 μL of a DMSO solution as a test compound adjusted to a concentration 100 times as high as the final concentration was added to the mixture, and the whole was reacted at 37° C. for 3 minutes. Then, 20 μL of a 2 mM synthetic substrate S-2222 (manufactured by Daiichi Pure Chemicals Co., Ltd.) was added to the mixture, and the whole was reacted at 37° C. for an additional 20 minutes, followed by addition of 100 μL of 20% acetic acid for stopping the reaction. After that, absorbance at 405 nm (hereinafter, abbreviated to OD 405 nm) was measured with a microplate reader.

FXa = target: T2, FXa (Homo sapiens, UniProt P00742); assay: FXa Inhibition Test; type: biochemical
T2 construct: FXa (manufactured by Enzyme Research Ltd.); purchased Enzyme Research Ltd
Method: 158 μL of a 20 mM tris-hydrochloric acid buffer (pH 7.5, containing 130 mM NaCl, 3.75 mM CaCl2, and 0.1% BSA) was placed on a 96 well microplate, and 20 μL of FXa (manufactured by Enzyme Research Ltd.) adjusted to 0.1 U/mL with the buffer was added to the buffer. Then, 2 μL of a DMSO solution as a test compound adjusted to a concentration 100 times as high as the final concentration was added to the mixture, and the whole was reacted at 37° C. for 3 minutes. After that, 20 μL of an S-2222 substrate solution adjusted to 2 mM with the buffer was added to the mixture, and the whole was reacted at 37° C. for 30 minutes, followed by addition of 100 μL of 20% acetic acid for stopping the reaction. After that, OD 405 nm was measured with a microplate reader.

[1] = Enzyme Inhibition IC50 Tryptase, selectivity test, Table 7
[2] = substrate S-2222, 37° C., 30 minutes, read-out: Enzyme Inhibition IC50 FXa
[3] = Tryptase Inhibiting Activity IC50, substrate Boc-Phe-Ser-Arg-MCA, 25° C., 1 hour
[4] = selectivity test, Table 7, read-out: Enzyme Inhibition IC50 Tryptase
[5] = substrate Boc-Phe-Ser-Arg-MCA, 25° C., 1 hour, read-out: Tryptase Inhibiting Activity IC50
[6] = read-out: FXa inhibiting activity in terms of IC50
[7] = read-out: β-tryptase inhibitory activity in terms of IC50

T2 sequence (P00742 235-488 limits assumed): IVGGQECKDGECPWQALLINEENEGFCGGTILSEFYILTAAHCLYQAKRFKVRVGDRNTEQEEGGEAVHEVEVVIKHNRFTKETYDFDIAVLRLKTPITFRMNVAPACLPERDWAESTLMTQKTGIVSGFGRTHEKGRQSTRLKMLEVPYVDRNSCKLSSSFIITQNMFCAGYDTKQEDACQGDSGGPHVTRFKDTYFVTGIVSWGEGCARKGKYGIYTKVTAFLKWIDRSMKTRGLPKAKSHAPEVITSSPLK
T2 sequence (P00742 41-179 partner limits assumed): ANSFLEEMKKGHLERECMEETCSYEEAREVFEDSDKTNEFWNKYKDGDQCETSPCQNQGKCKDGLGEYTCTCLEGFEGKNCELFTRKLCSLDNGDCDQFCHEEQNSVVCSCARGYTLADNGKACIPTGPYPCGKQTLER
T1 sequence (Q15661 31-275): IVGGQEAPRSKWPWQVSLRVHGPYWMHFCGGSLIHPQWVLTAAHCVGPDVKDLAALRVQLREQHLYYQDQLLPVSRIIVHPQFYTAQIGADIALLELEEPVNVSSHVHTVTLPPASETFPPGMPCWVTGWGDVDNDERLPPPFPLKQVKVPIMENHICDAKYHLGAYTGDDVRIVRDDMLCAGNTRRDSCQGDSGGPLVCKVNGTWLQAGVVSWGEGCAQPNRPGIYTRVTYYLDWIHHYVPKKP

For NCc1ccc(CCCNCCNS(=O)(=O)c2ccc3ccccc3c2)cc1 [Compound 1], the IC50 (β-tryptase) was 86 nM, the IC50 (β-tryptase; [1]) was 86 nM and the IC50 (trypsin) was > 100000 nM. For the same molecule, the IC50 (FXa; [2]) was > 100000 nM.

With NCc1ccc(CCCNCCNS(=O)(=O)c2ccc3ccccc3c2Cl)cc1 [Compound 4] the IC50 (trypsin) was > 100000 nM, the IC50 (FXa; [2]) was > 100000 nM and the melting point was 264.3 to 265.6 °C.

In the case of NCc1ccc(CCCNCCNS(=O)(=O)c2ccc3sccc3c2)cc1 [Compound 5], the IC50 (β-tryptase; [3]) is reported as 210 nM and the melting point is reported as 264.2 to 265.4 °C.

Molecule NCc1ccc(CCCNCCNS(=O)(=O)c2ccc3c(c2)CCC3)cc1 [Compound 7] has an IC50 (β-tryptase; [3]) of 200 nM and a melting point of 199 to 199.7 °C.

In the case of NCc1ccc(CCCNCCNS(=O)(=O)c2ccc3c(c2)CNCC3)cc1 [Compound 9], the IC50 (β-tryptase; [3]) is reported as 190 nM and the melting point is reported as 233.9 to 234.5 °C.

For NCc1ccc(CCCNCCNC(=O)c2ccc3ccccc3c2)cc1 [Compound 11], the IC50 (β-tryptase; [4]) was 150 nM, the IC50 (β-tryptase; [5]) was 150 nM and the IC50 (trypsin) was > 30000 nM. The IC50 (FXa; [2]) was > 30000 nM and the melting point was 69.7 to 72.2 °C.

For NCc1ccc(CCCNCCNC(=O)c2ccc3ncccc3c2)cc1 [Compound 13], the IC50 (β-tryptase; [5]) was 190 nM and the melting point was 269.5 to 271.2 °C.

With CN(CCCc1ccc(CN)cc1)CCNS(=O)(=O)c1ccc2ccccc2c1 [Compound 17] the IC50 (β-tryptase) was 120 nM, the IC50 (β-tryptase; [1]) was 120 nM and the IC50 (trypsin) was > 30000 nM. For the same molecule, the IC50 (FXa; [2]) was > 30000 nM and the melting point was 91.6 to 92 °C.

For CCN(CCCc1ccc(CN)cc1)CCNS(=O)(=O)c1ccc2ccccc2c1 [Compound 18], the IC50 (β-tryptase; [5]) was 140 nM.

Work on CN(CCCc1ccc(CN)cc1)CCNS(=O)(=O)c1ccc2ccccc2c1Cl [Compound 20] yielded an IC50 (β-tryptase; [5]) of 15 nM and a melting point of 221.5 to 222.7 °C.

NCc1ccc(CCCN(CCNS(=O)(=O)c2ccc3ccccc3c2)CCC(=O)O)cc1 [Compound 33] showed an IC50 (β-tryptase; [5]) of 440 nM.

In the case of CN(CCCc1ccc(CN)cc1)CCNC(=O)c1ccc2cc(Br)ccc2c1 [Compound 41], the IC50 (β-tryptase; [4]) is reported as 8 nM, the IC50 (trypsin) is reported as > 100000 nM and the IC50 (FXa; [2]) is reported as > 100000 nM.

Molecule CN(CCCc1ccc(CN)cc1)CCNC(=O)c1cc2ccccc2o1 [Compound 45] has an IC50 (β-tryptase; [5]) of 20 nM.

In the case of CN(CCCc1ccc(CN)cc1)CCNC(=O)c1ccc2occc2c1 [Compound 46], the IC50 (β-tryptase; [5]) is reported as 64 nM.

CN(CCCc1ccc(CN)cc1)CCNC(=O)c1sc2ccccc2c1Cl [Compound 49] showed an IC50 (β-tryptase; [5]) of 15 nM.

For CN(CCCc1ccc(CN)cc1)CCNC(=O)c1c[nH]c2ccccc12 [Compound 51], the IC50 (β-tryptase; [5]) was 100 nM.

For CN(CCCc1ccc(CN)cc1)CCNC(=O)c1ccc2cc[nH]c2c1 [Compound 53], the IC50 (β-tryptase; [5]) was 5 nM.

For Cc1ccc2[nH]c(C(=O)NCCN(C)CCCc3ccc(CN)cc3)cc2c1 [Compound 55], the IC50 (β-tryptase; [4]) was 5 nM, the IC50 (β-tryptase; [5]) was 5 nM and the IC50 (trypsin) was > 100000 nM. For the same molecule, the IC50 (FXa; [2]) was > 100000 nM.

With CN(CCCc1ccc(CN)cc1)CCNC(=O)c1cc2cc(Cl)ccc2[nH]1 [Compound 58] the IC50 (β-tryptase; [4]) was 6 nM, the IC50 (trypsin) was > 100000 nM and the IC50 (FXa; [2]) was > 100000 nM. It also gave a melting point of 166.4 to 170 °C.

In the case of CN(CCCc1ccc(CN)cc1)CCNC(=O)c1cc2cc(Br)ccc2[nH]1 [Compound 61], the IC50 (β-tryptase; [4]) is reported as 6 nM, the IC50 (β-tryptase; [5]) is reported as 6 nM and the IC50 (trypsin) is reported as > 100000 nM. For the same molecule, the IC50 (FXa; [2]) was > 100000 nM.

With CN(CCCc1ccc(CN)cc1)CCNC(=O)c1cc2cc(F)ccc2[nH]1 [Compound 62] the IC50 (β-tryptase; [5]) was 14 nM.

Work on CN(CCCc1ccc(CN)cc1)CCNC(=O)c1cc2cc(C(F)(F)F)ccc2[nH]1 [Compound 63] yielded an IC50 (β-tryptase; [5]) of 32 nM.

Work on CN(CCCc1ccc(CN)cc1)CCNC(=O)c1cc2cc(C(=O)O)ccc2[nH]1 [Compound 69] yielded an IC50 (β-tryptase; [5]) of 55 nM.

For CC(=O)c1ccc2[nH]c(C(=O)NCCN(C)CCCc3ccc(CN)cc3)cc2c1 [Compound 70], the IC50 (β-tryptase; [4]) was 8 nM, the IC50 (trypsin) was > 100000 nM and the IC50 (FXa; [2]) was > 100000 nM.

In the case of CN(CCCc1ccc(CN)cc1)CCNC(=O)c1cc2cc(OCc3ccccc3)ccc2[nH]1 [Compound 72], the IC50 (β-tryptase; [4]) is reported as 15 nM, the IC50 (trypsin) is reported as > 100000 nM and the IC50 (FXa; [2]) is reported as > 100000 nM.

In the case of CN(CCCc1ccc(CN)cc1)CCNC(=O)c1ccc2c(ccn2C)c1 [Compound 73], the IC50 (β-tryptase; [5]) is reported as 1 nM.

CN(CCCc1ccc(CN)cc1)CCNC(=O)c1nc2ccccc2s1 [Compound 77] showed an IC50 (β-tryptase; [5]) of 73 nM.

In the case of CN(CCCc1ccc(CN)cc1)CCNC(=O)c1ccc2ncsc2c1 [Compound 78], the IC50 (β-tryptase; [5]) is reported as 20 nM.

For CN(CCCc1ccc(CN)cc1)CCN(C)C(=O)c1cc2cc(Cl)ccc2[nH]1 [Compound 87], the IC50 (β-tryptase; [5]) was 1 nM and the melting point was 190.2 to 191.4 °C.

CN(CCCc1ccc(CN)nc1)CCNC(=O)c1ccc2[nH]ccc2c1 [Compound 89] showed an IC50 (β-tryptase; [5]) of 140 nM.

Work on CN(CCCc1ccc(CN)s1)CCNC(=O)c1cc2ccccc2s1 [Compound 90] yielded an IC50 (β-tryptase; [5]) of 200 nM.

Molecule CN(CCCc1ccc(CN)cc1)CCNCc1cc2ccccc2s1 [Compound 91] has an IC50 (β-tryptase; [5]) of 310 nM.

With NCc1ccc(CCCNCCNS(=O)(=O)c2ccc3ccccc3c2Cl)cc1 [compound 4] the IC50 (FXa; [6]) was ≥ 100000 nM.

With CN(CCCc1ccc(CN)cc1)CCNC(=O)c1ccc2cc(Br)ccc2c1 [compound 41] the IC50 (β-tryptase; [7]) was ≤ 10 nM and the IC50 (FXa; [6]) was ≥ 100000 nM.

In the case of CN(CCCc1ccc(CN)cc1)CCNC(=O)c1ccc2cc[nH]c2c1 [compound 53], the IC50 (β-tryptase; [7]) is reported as ≤ 10 nM.

In the case of Cc1ccc2[nH]c(C(=O)NCCN(C)CCCc3ccc(CN)cc3)cc2c1 [compound 55], the IC50 (β-tryptase; [7]) is reported as ≤ 10 nM and the IC50 (FXa; [6]) is reported as ≥ 100000 nM.

In the case of CN(CCCc1ccc(CN)cc1)CCNC(=O)c1cc2cc(Cl)ccc2[nH]1 [compound 58], the IC50 (β-tryptase; [7]) is reported as ≤ 10 nM and the IC50 (FXa; [6]) is reported as ≥ 100000 nM.

With CN(CCCc1ccc(CN)cc1)CCNC(=O)c1cc2cc(Br)ccc2[nH]1 [compound 61] the IC50 (β-tryptase; [7]) was ≤ 10 nM and the IC50 (FXa; [6]) was ≥ 100000 nM.

For CC(=O)c1ccc2[nH]c(C(=O)NCCN(C)CCCc3ccc(CN)cc3)cc2c1 [compound 70], the IC50 (β-tryptase; [7]) was ≤ 10 nM and the IC50 (FXa; [6]) was ≥ 100000 nM.

For CN(CCCc1ccc(CN)cc1)CCNC(=O)c1ccc2c(ccn2C)c1 [compound 73], the IC50 (β-tryptase; [7]) was ≤ 10 nM.

In the case of CN(CCCc1ccc(CN)cc1)CCN(C)C(=O)c1cc2cc(Cl)ccc2[nH]1 [compound 87], the IC50 (β-tryptase; [7]) is reported as ≤ 10 nM.
